The values below come from patent publication US6458585B1, “Cytokine-free culture of dendritic cells” (Nexell Therapeutics Inc., priority 1996, dated 2002).

The subject of one assay is adherent PBMNC. The assay is described as follows: Cell counts and viability of plastic adherent cells cultured with non-cytokine additives in polystyrene plates. The assay is classed as cell-based, human. On the set-up: % VIABLE: concentration or dose not given beside the values. The note with it: for % VIABLE: propidium iodide.
A further assay deals with Bulk PBMNC. As to the kind of experiment: S100+ cells in bulk PBMNC cultures with non-cytokine additives. It is filed as cell-based, human. Particulars: day 7; average. Here is the method: Immunocytochemical staining: PBS (phosphate buffered saline) was made by dissolving 5 PBS tablets into 1000 ml millipore water. Cytospin slides were soaked in PBS. Endogenous peroxidase activity was blocked by treating slides with hydrogen peroxide/PBS (2 ml 30% H2O2+30 ml PBS) for 10 min. Slides were rinsed with PBS one time. Non-specific binding sites were blocked by incubating with normal serum matching source of secondary antibody (i.e. if secondary antibody is biotinylated goat-anti-mouse, used normal goat serum) at room temp. for 15 min. in a humidified environment. Excess serum was shaken from slides and placed 100 ul of primary antibody on slide, making sure cells are covered with liquid and incubated in humidified environment, room temp, for one hour. Negative control slides were incubated with normal serum for this hour. Slides were rinsed 3 times with PBS. Slides were incubated with biotinylated antibody reactive against the primary antibody (i.e. if primary antibody is mouse-anti-human, use a biotinylated goat-anti-mouse antibody) for 1 hour in humidity. Slides were rinsed 3 times with PBS. Slides were incubated with streptavidin-peroxidase, 2 drops/slide, for 30 min. in humidity. Slides were rinsed 3 times with PBS.
Chromagen solution was made with 5 ml millipore water+2 drops of chromagen buffer+1 drop of concentrated chromagen+1 drop of substrate, and 4-5 drops were added to each slide. […] Slides were counterstained with hematoxylin for about 5 min, or until cell nuclei were stained purple. Cells were rinsed with tap water and allowed to air dry. Slides were covered with crystal mount and oven dried at 80 degrees for 15 min. Slides were allowed to cool, then coversliped with mounting medium.
Culture of Bulk PBMNC: PBMNC cells were cultured in X-VIVO 15™ supplemented with 2 mM L- glutamine. Cultures were initiated at 5×^05 cells/ml in PL2417 gas-permeable containers (20 ml). GM-CSF and IL-4 were added to the cultures at final concentrations of 50 ng/ml and 1000 U/ml or non-cytokine additives such as Vitamin D3 at 2.5 uM, Vitamin E at 0.1%, Linoleic Acid at 5 ug/ml, or Ca++ Ionophore at 10 mM. Addition and subtraction of cells, media, and growth factors to and from PL2417 gas-permeable containers was accomplished by spiking a Sampling Site Coupler into the sample port of the container followed by use of syringes and needles. Cells were cultured in a 5% CO2, ambient O2, 37° C. humidified incubator for 7 days.
Cytospin slide preparation, Wright-Geimsa and immunohistochemical staining of the cultured cells were conducted as described in Example 1 and 2 above. Mixed lymphocyte reactions (MLR's) were setup using T cells (responders) and dendritic cell enriched cultures (stimulators) from bulk PBMNC cultures, as described above in Example 1.
The S100 protein is a nerve cell protein that has been associated with dendritic cells. In Table 47, at day 7 of culture, the highest percent of S100+ cells was present in the GM-CSF/IL-4 culture (13%).

In the case of `CCCCC/C=C\C/C=C\CCCCCCCC(=O)O` [Linoleic Acid], the “TOTAL CELLS” value is 1.41E + 05 in the assay with adherent PBMNC (Day 4, with GM-CSF present); 1.99E + 05 in the assay on adherent PBMNC (Day 4, without GM-CSF); 7.85E + 05 in the assay on adherent PBMNC (Day 7, with GM-CSF present); 1.19E + 05 in the assay with adherent PBMNC (Day 7, without GM-CSF). The “% VIABLE” value in the assay on adherent PBMNC (Day 4, with GM-CSF present) came to 96.07%; in the assay on adherent PBMNC (Day 4, without GM-CSF), 78.84%; with adherent PBMNC (Day 7, with GM-CSF present), 82.63%; with adherent PBMNC (Day 7, without GM-CSF), 82.69%. The “percent of S100+ cells” value with Bulk PBMNC was “equivalent average percentages”.
